According to US8106077B2, “Compounds and methods for modulating FXR” (Eli Lilly and Company, priority 2007, dated 2012):

Assays:
LDLR−/− mice = test: LDLR−/− serum lipid modulation; type: in vivo; conditions: male LDLR−/− mice on western diet, 10 mg/kg, oral gavage once daily for seven days
Method: Acclimate animals for two weeks prior to study initiation. House mice individually in polycarbonate cages with filter tops, and maintain mice on a 12:12 hour light-dark cycle (lights on at 6:00 AM) at 21° C. Provide deionized water ad libitum and maintain for two weeks on ‘western diet’ TD 88137 Diet (42% fat, 0.15% cholesterol, Harlan Teklad) ad libitum. Optimize groups of five ten-week-old male LDLR−/− mice based on serum triglyceride and cholesterol levels. Dose groups once daily by oral gavage with various doses of the test compound dissolved in 5% EtOH/5% Solutol in NaCMC (1%), SLS (0.5%), antifoam (0.05%), Povidone (0.085%) for seven days. At the end of the seven-day dosing period, collect blood by cardiac puncture after asphyxiation in a CO2 chamber. […] Lipoproteins were separated by fast protein liquid chromatography, and cholesterol was quantitated with an in-line detection system. […] The colored product produced in the presence of cholesterol was monitored in the flow stream at 505 nm, and the analog voltage from the monitor was converted to a digital signal for collection and analysis. The change in voltage corresponding to change in cholesterol concentration was plotted vs. time, and the area under the curve corresponding to the elution of VLDL-C and HDL-C was calculated using Turbochrome (version 4.12F12) software from PerkinElmer (Norwalk, Conn.). […]

FXR = molecular target: T1, FXR (Homo sapiens, UniProt Q96RI1); test: bDNA assay for SHP mRNA; type: cell-based; conditions: human hepatocarcinoma Huh7 cells, 24 hours, bDNA signal; read-out: SHP gene activation EC50
T1 construct: Plate human hepatocarcinoma Huh7 cells grown in DMEM:F12 with 10% fetal bovine serum; endogenous in cells; host or cells: Huh7 (human hepatocarcinoma)
T1 sequence (Q96RI1 1-486): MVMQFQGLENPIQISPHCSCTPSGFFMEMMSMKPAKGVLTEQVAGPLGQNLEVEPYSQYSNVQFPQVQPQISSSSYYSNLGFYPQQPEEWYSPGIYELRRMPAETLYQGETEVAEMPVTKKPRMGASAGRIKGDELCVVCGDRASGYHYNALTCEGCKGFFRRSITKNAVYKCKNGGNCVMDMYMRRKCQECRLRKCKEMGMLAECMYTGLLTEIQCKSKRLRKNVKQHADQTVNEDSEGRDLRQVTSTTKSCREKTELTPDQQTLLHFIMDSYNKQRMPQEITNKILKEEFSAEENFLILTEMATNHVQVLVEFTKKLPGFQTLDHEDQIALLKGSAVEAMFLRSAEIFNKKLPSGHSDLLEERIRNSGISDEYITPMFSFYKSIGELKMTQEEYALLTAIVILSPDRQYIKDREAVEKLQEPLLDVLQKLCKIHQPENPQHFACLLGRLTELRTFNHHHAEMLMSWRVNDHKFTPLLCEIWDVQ
Text: FXR is a key, direct transcriptional regulator of the Small Heterodimer Partner (SHP) gene, accession number NM_021969, an atypical member of the nuclear receptor family that lacks a DNA-binding domain. SHP interacts with several conventional and orphan members of the nuclear receptor superfamily, including retinoid receptors and thyroid hormone receptor. SHP inhibits transactivation potential of superfamily members with which it interacts. […] Since FXR directly transactivates transcription of the SHP gene, the SHP branched DNA method (bDNA) quantitates FXR activation by ligands. Thus, increased expression of SHP mRNA, as determined by increase bDNA signal, signifies engagement of FXR by an agonist.
Plate human hepatocarcinoma Huh7 cells grown in DMEM:F12 with 10% fetal bovine serum and in 96 well plate at the density of 1×10^5/well. After overnight incubation, treat the cells with test compounds at various concentrations for 24 hours. […]
Incubate the lysis buffer for 15-minute at 37° C., then transfer 100 μL of the lysate from each well to the corresponding wells of the capture plate. […] Label the mRNA to be measured by addition of 100 μL QuantiGene® label probe working buffer then incubate for 60 minutes at 46° C. […] Incubate the plates at 37° C. for up to 30 minutes and then read on a luminometer (Packard Fusion Alpha, 1 second detection) to detect the luminescent signal. […]

EC50 (FXR)	SMILES	lowering of total cholesterol (LDLR−/− mice)	lowering of triglycerides (LDLR−/− mice)
–	Cc1cc(CN(C)c2ccc(OCc3c(C(C)C)nnn3-c3c(Cl)cccc3Cl)cc2C)ccc1C(=O)O [Example 13, 4-[({4-[5-Isopropyl-3-(2,6-dichloro-phenyl)-3H-[1,2,3]triazol-4-ylmethoxy]-2-methyl-phenyl}-methyl-amino)-methyl]-2-methyl-benzoic acid]	60%	63%
~370 nM	Cc1cc(OCc2c(C(C)C)nnn2-c2c(Cl)cccc2Cl)ccc1N(C)Cc1ccc(C(=O)O)cc1 [Example 42, 4-[({4-[5-Isopropyl-3-(2,6-Dichloro-phenyl)-3H-[1,2,3]triazol-4-ylmethoxy]-2-methyl-phenyl}-methyl-amino)-methyl]-benzoic acid]	–	–
